Measurements taken from patent EP1891948A1, “Treatment of neurological and neuropsychological disorders” (Probiodrug AG, priority 2000, dated 2002).

Tested on: WistarF/Han (WF) rats
Assay: Elevated plus maze (EPM) test after i.c.v. treatment
Format: in vivo
Conditions: low dose (50pmol), Fig. 6
Experimental: Animals. Male WistarF/Han (WF) rats (Central Animal Laboratory, Hannover Medical School, Hannover, Germany, see http://www.mh-hannover.de/institut/tierlabor/wf.htm for details), weighing 350-390g, were housed in a sound-proof, temperature controlled (24.0±0.5°C) room under specific pathogen free conditions with a 12/12h dark/light cycle (lights on at 07.00 with illumination level of 80 Lux). Food (Altromin lab chow pellets) and tap water were available ad libitum. Under ketamine/xylasine (100/5 mg/kg, i.p.) anesthesia, the rats were fixed in a Kopf stereotaxic frame and implanted with cannulae (Plastic One, Inc., Roanoke, VA, USA) above the lateral ventricle. All research and animal care procedures were approved by the Lower Saxony district government (Hannover, Germany) and followed principles described in the European Community's Council Directive of 24 November 1986 (86/609/EEC). […]
Elevated plus maze (EPM) testing. […] The following parameters were calculated: Total numbers of arm entries (TA); entries to closed arms (CA); entries to open arms (OA); percentage frequency of entries to open arms (%OA: OAx100/TA); total trial duration (TT): 300s; duration of stay in closed arms (closed time; CLT); percentage share of CLT in total arms-stay duration (CLTx100/AT); duration of stay in open arms (open time; OT) and percentage share of OT in total arm-stay duration (%OT: OTx100/AT). […]

CCC(C)C(N)C(=O)N1CCSC1 (stereo not shown) [isoleucyl thiazolidine]
percentage of time spent on the open arms of the maze: increased
